Here are results for 10 compounds from patent EP4745138A1, “THIO-GLUTARIMIDO ISOINDOLINONE DERIVATIVE, BIFUNCTIONAL PROTEIN DEGRADER CONTAINING SAME, AND USES THEREOF” (Gluetacs Therapeutics (Shanghai) Co., Ltd., priority 2023, dated 2025).

SMILES strings stand for the structures. Like-named read-outs stand apart in the source and are kept apart here.

One test concerns the target T1, FAK (Homo sapiens, UniProt Q05397).
T1 construct: endogenous in cells; host or cells: A549
Put plainly: Western blot, target protein degradation in A549 Cell. To be noted: substrate protein remaining %, treated at 500 nM and 50 nM, 24 hours. Format: cell-based. The protocol: (§1) Conventional Western blot assay was performed to evaluate the effects of the compounds of the present disclosure on the expression of target proteins in cells.
(§2) (1) Cell Seeding and Protein Harvesting: The selected cells were processed according to the cell seeding procedure and protein harvesting procedure in Table II-2. Table II-2 Cell Seeding and Protein Harvesting Procedures
(§3) (2) To the collected supernatant, 5X SDS sample loading buffer was added, followed by denaturation at 95°C for 5 minutes. The denatured samples were then separated by SDS-PAGE electrophoresis on a polyacrylamide gel. Proteins were transferred to a nitrocellulose membrane (0.45 µm NC membrane), blocked with blocking buffer at room temperature for 1 hour, and subjected to antibody incubation and development procedures according to the antibody manufacturer's instructions (Cell Signaling Technology).
(§4) Half-Maximal Degradation Concentration value (the drug concentration required for degrading proteins by 50%, abbreviated as DC50) reads method: comparing the grayscale values of Western blot bands from drug-treated samples with those from blank DMSO-treated controls, and identifying the drug concentration range at which the grayscale value is half that of the DMSO-treated control bands.
(§5) DC50 values can be calculated using ImageJ software to measure grayscale values of Western blot bands from drug-treated samples. The concentration-response curve is fitted to estimate the drug concentration corresponding to half the grayscale value.
(§6) Target protein remaining (%) refers to the percentage of target protein remaining in cells after treatment with protein degrader compounds.
(§7) Calculation method for target protein remaining (%): Use ImageJ software to measure grayscale values of Western blot bands from drug (protein degrader)-treated samples. The grayscale value of drug-treated bands is divided by that of internal control protein bands, and the resulting quotient is normalized to obtain the relative percentage of remaining target protein after protein degrader treatment. Target protein degradation rate(%) = 1−target protein remaining(%). [formula]

The target in test [1] is T2, human Cereblon WT GST-tagged protein (Homo sapiens, UniProt Q96SW2).
T2 construct: purchased CISBIO 64BDCRBNPEH
T2 sequence (Q96SW2 whole entry): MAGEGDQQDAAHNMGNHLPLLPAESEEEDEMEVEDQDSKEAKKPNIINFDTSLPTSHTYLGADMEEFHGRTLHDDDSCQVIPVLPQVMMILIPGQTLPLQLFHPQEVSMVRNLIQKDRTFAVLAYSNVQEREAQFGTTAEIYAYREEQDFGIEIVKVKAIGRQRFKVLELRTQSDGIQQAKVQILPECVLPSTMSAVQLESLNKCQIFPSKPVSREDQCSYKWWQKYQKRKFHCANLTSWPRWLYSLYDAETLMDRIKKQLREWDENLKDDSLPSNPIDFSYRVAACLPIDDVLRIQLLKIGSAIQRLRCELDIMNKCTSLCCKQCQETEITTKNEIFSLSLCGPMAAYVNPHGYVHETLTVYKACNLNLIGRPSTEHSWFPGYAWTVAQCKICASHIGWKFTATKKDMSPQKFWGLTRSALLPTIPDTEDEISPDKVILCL
The experiment in a line: CRBN-binding affinity, HTRF (CEREBLON BINDING kit). To be noted: for inhibition at 0.5 µM: read-out: Inhibition Rate at 0.5 µM (%); for inhibition at 2 µM: read-out: Inhibition Rate at 2 µM (%). In a few lines:
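GST-tagged human wild-type Cereblon is mixed with test compound (final 2 µM and 0.5 µM) plus an anti-GST europium antibody/thalidomide-Red tracer pair. Binding is read as HTRF displacement, with buffer-only blank wells.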

The test system of another test is MV-4-11. The experiment in a line: Tumor cell proliferation inhibition (CellTiter-Meiluncell Luminescent Cell Viability Assay). Format: cell-based. To be noted: Homo sapiens, 96 hours, Table I-12, FAK inhibitors; for inhibition at 0.01 µM: MV4-11, 10 nM, read-out: Inhibition Rate at 10 nM (%); for inhibition at 0.5 µM: MV4-11, 500 nM, read-out: Inhibition Rate at 500 nM (%). The essentials: (§8)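 Following overnight seeding, tumor cells received serial compound dilutions to final levels that included 10 nM and 500 nM. Viability was assessed by luminescence at the end of the specified exposure time. Cultures were kept at 37°C with 5% CO2.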

The test system of a further test is MM.1S. Described as above. Format: cell-based. To be noted: Homo sapiens, MM1.S, MM.1S, 96 hours, Table I-12, FAK inhibitors; for inhibition at 0.01 µM: 10 nM, read-out: Inhibition Rate at 10 nM (%); for inhibition at 0.5 µM: 500 nM, read-out: Inhibition Rate at 500 nM (%). In a few lines:
as §8

The subject of another test is SW620. Described as above. It is filed as cell-based. To be noted: Homo sapiens, 96 hours; for inhibition at 0.01 µM: SW-620, 10 nM, read-out: Inhibition Rate at 10 nM (%); for inhibition at 0.5 µM: SW-620, 500 nM, read-out: Inhibition Rate at 500 nM (%). In a few lines: as §8
The test system of another test is TMD8. The test is described as above. Format: cell-based. To be noted: Homo sapiens, 96 hours; for inhibition at 0.01 µM: 10 nM, read-out: Inhibition Rate at 10 nM (%); for inhibition at 0.5 µM: 500 nM, read-out: Inhibition Rate at 500 nM (%). The essentials: (§9)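 Luminescent viability read-out (CellTiter-Meiluncell) after compound exposure for a specified time; IC50 determined. Seeding was done the day before dosing with serially diluted compound, final concentrations including 500 nM and 10 nM. Culture at 37°C, 5% CO2.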

The subject of the next test is CFPAC-1. Described as above. It is filed as cell-based. To be noted: Homo sapiens, 96 hours, Table I-10, BCR-ABL inhibitors. The essentials:
as §9

The next test relates to EGFR. Put plainly: Western blot, target protein degradation in H1975 Cell. It is filed as cell-based, Human. To be noted: substrate protein remaining %, treated at 500 nM and 50 nM, 24 hours. The protocol:
as §1, §2, §3, §4, §5, §6, §7

T1 sequence (Q05397 whole entry): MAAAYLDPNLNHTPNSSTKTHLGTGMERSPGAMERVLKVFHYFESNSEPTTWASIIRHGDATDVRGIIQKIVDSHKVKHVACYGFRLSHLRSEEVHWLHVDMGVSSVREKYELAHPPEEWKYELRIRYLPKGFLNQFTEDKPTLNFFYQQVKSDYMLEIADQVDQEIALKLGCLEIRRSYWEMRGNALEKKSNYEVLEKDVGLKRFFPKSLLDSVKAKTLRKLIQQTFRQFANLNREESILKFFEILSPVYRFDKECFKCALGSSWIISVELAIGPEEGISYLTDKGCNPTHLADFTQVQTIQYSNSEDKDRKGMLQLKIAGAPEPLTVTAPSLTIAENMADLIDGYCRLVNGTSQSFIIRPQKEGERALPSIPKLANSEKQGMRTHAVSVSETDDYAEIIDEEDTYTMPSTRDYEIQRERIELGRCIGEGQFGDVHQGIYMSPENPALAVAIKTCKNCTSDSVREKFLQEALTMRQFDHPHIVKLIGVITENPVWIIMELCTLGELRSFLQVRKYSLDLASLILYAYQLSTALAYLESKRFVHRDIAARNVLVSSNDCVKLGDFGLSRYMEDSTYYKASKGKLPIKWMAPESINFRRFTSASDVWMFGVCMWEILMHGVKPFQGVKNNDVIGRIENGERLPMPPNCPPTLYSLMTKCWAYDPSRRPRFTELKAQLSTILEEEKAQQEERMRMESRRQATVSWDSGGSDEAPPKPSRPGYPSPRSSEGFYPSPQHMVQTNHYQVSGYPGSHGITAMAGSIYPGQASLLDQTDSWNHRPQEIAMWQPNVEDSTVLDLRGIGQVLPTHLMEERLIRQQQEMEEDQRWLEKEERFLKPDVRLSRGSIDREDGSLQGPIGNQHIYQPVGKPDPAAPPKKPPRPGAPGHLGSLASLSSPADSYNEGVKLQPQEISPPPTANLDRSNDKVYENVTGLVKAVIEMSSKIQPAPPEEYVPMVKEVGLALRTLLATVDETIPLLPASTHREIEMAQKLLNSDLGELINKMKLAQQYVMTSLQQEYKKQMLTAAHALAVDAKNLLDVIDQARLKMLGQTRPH

For the compound `CN(c1nccnc1CNc1nc(Nc2ccc(N3CCN(Cc4ccc5c(c4)CN(C4CCC(=O)NC4=O)C5=S)CC3)cc2)ncc1C(F)(F)F)S(C)(=O)=O` (centres unmarked) [GT-08779, N-(3-(((2-((4-(4-((2-(2,6-dioxopiperidin-3-yl)-1-thioxoisoindolin-5-yl)methyl)piperazin-1-yl)phenyl)amino)-5-(trifluoromethyl)pyrimidin-4-yl)amino)methyl)pyrazin-2-yl)-N-methylmethanesulfonamide], the “Degradation of substrate protein FAK” value on FAK is on record as “A (0% ≤ substrate protein remaining % ≤ 80%)”. Moreover, in test [1], the inhibition at 0.5 µM fell in the range of 30 to 40% and the inhibition at 2 µM lay in the range of 80 to 100%. Besides, in the test on MV-4-11, the inhibition at 0.01 µM is 10 to 20% and the inhibition at 0.5 µM lay in the range of 70 to 80%.
For the compound `CS(=O)(=O)c1cccc(CNc2nc(Nc3ccc(N4CCN(Cc5ccc6c(c5)CN(C5CCC(=O)NC5=O)C6=S)CC4)cc3)ncc2C(F)(F)F)c1` (centres unmarked) [GT-08780, 3-(5-((4-(4-((4-((3-(methylsulfonyl)benzyl)amino)-5-(trifluoromethyl)pyrimidin-2-yl)amino)phenyl)piperazin-1-yl)methyl)-1-thioxoisoindolin-2-yl)piperidine-2,6-dione], the “Degradation of substrate protein FAK” value at FAK is listed as “A (0% ≤ substrate protein remaining % ≤ 80%)”. Moreover, the inhibition at 0.01 µM in the test with MV-4-11 lay within 20 to 30%; with MM.1S, 20 to 30%; with SW620 (Table I-12, FAK inhibitors), 10 to 20%. In addition, the inhibition at 0.5 µM with MV-4-11 was in the range of 70 to 80%; in the test on MM.1S, 40 to 50%; in the test with SW620 (Table I-12, FAK inhibitors), 40 to 50%.
With `CN(c1cccc(CNc2nc(Nc3ccc(N4CCN(Cc5ccc6c(c5)CN(C5CCC(=O)NC5=O)C6=S)CC4)cc3)ncc2C(F)(F)F)c1)S(C)(=O)=O` (centres unmarked) [GT-08781, N-(3-(((2-((4-(4-((2-(2,6-dioxopiperidin-3-yl)-1-thioxoisoindolin-5-yl)methyl)piperazin-1-yl)phenyl)amino)-5-(trifluoromethyl)pyrimidin-4-yl)amino)methyl)phenyl) -N-methylmethanesulfonamide], the “Degradation of substrate protein FAK” value at FAK was “A (0% ≤ substrate protein remaining % ≤ 80%)”. Moreover, in test [1], the inhibition at 0.5 µM lay within 53 to 60% and the inhibition at 2 µM fell in the range of 60 to 80%. In addition, in the test on MV-4-11, the inhibition at 0.01 µM fell in the range of 5 to 10% and the inhibition at 0.5 µM lay within 60 to 70%.
Consider `CN(c1nccnc1CNc1nc(Nc2ccc(N3CCN(Cc4cccc5c4CN(C4CCC(=O)NC4=O)C5=S)CC3)cc2)ncc1C(F)(F)F)S(C)(=O)=O` (centres unmarked) [GT-08783, N-(3-(((2-((4-(4-((2-(2,6-dioxopiperidin-3-yl)-1-thioxoisoindolin-4-yl)methyl)piperazin-1-yl)phenyl)amino)-5-(trifluoromethyl)pyrimidin-4-yl)amino)methyl)pyrazin-2-yl)-N-methylmethanesulfonamide], for which the “Degradation of substrate protein FAK” value at FAK is reported as “A (0% ≤ substrate protein remaining % ≤ 80%)”. In test [1], the inhibition at 0.5 µM is 40 to 53% and the inhibition at 2 µM lay within 60 to 80%. Also, in the test with MV-4-11, the inhibition at 0.01 µM was in the range of 20 to 30% and the inhibition at 0.5 µM lay within 70 to 80%.
`CN(c1cccc(CNc2nc(Nc3ccc(N4CCN(Cc5cccc6c5CN(C5CCC(=O)NC5=O)C6=S)CC4)cc3)ncc2C(F)(F)F)c1)S(C)(=O)=O` (centres unmarked) [GT-08883, N-(3-(((2-((4-(4-((2-(2,6-dioxopiperidin-3-yl)-1-thioxoisoindolin-4-yl)methyl)piperazin-1-yl)phenyl)amino)-5-(trifluoromethyl)pyrimidin-4-yl)amino)methyl)phenyl) -N-methylmethanesulfonamide]: the “Degradation of substrate protein FAK” value on FAK is “A (0% ≤ substrate protein remaining % ≤ 80%)”. In addition, the inhibition at 0.5 µM in test [1] lay within 40 to 53%; in the test on MV-4-11 it was 70 to 80%; in the test on MM.1S, 40 to 50%; in the test with SW620 (Table I-12, FAK inhibitors) it was 40 to 50%. The inhibition at 2 µM in test [1] lay in the range of 53 to 60%. The inhibition at 0.01 µM fell in the range of 20 to 30% with MV-4-11; 10 to 20% with MM.1S; 30 to 40% in the test with SW620 (Table I-12, FAK inhibitors).
As to `CC(C)(C)c1cnc(CSc2cnc(NC(=O)C3CCN(Cc4ccc5c(c4)CN(C4CCC(=O)NC4=O)C5=S)CC3)s2)o1` (centres unmarked) [GT-09435, N-(5-(((5-(tert-butyl)oxazol-2-yl)methyl)thio)thiazol-2-yl)-1-((2-(2,6-dioxopiperidin-3-yl)-1-thioxoisoindolin-5-yl)methyl)piperidine-4-carboxamide], in test [1], the inhibition at 0.5 µM lay in the range of 40 to 53% and the inhibition at 2 µM was 80 to 100%. Further, in the test on TMD8 (Table I-7, CDK9 inhibitors), the inhibition at 0.01 µM was 0 to 5% and the inhibition at 0.5 µM fell in the range of 70 to 80%.
As for `Nc1ncnc2c1c(-c1ccc(Oc3ccccc3)cc1)nn2C1CCN(Cc2ccc3c(c2)CN(C2CCC(=O)NC2=O)C3=S)CC1` (centres unmarked) [GT-09436, 3-(5-((4-(4-amino-3-(4-phenoxyphenyl)-1H-pyrazolo[3,4-d]pyrimidin-1-yl)piperidin-1-yl)methyl)-1-thioxoisoindolin-2-yl)piperidine-2,6-dione], the inhibition at 0.5 µM in test [1] was 40 to 53%; in the test on TMD8 (Table I-4, BTK inhibitors) it was 80 to 100%; in the test with SW620 (Table I-4, BTK inhibitors), 80 to 100%. The inhibition at 2 µM in test [1] lay within 80 to 100%. The inhibition at 0.01 µM with TMD8 (Table I-4, BTK inhibitors) was 15 to 20%; in the test on SW620 (Table I-4, BTK inhibitors), 70 to 80%.
`Cc1ccc(C(=O)Nc2ccc(CN3CCN(Cc4ccc5c(c4)C(=S)N(C4CCC(=O)NC4=O)C5)CC3)c(C(F)(F)F)c2)cc1C#Cc1cnc2cccnn12` (centres unmarked) [GT-09439, N-(4-((4-((2-(2,6-dioxopiperidin-3-yl)-3-thioxoisoindolin-5-yl)methyl)piperazin-1-yl)methyl)-3-(trifluoromethyl)phenyl)-3-(imidazo[1,2-b]pyridazin-3-ylethynyl)-4-methylbenzamide]: the inhibition at 0.01 µM in the test on CFPAC-1 (10 nM, read-out: Inhibition Rate at 10 nM (%)) was 5 to 10%. Also, in the test on CFPAC-1 (500 nM, read-out: Inhibition Rate at 500 nM (%)), the inhibition at 0.5 µM lay within 60 to 70%.
`C=CC(=O)Nc1cc(Nc2nccc(-c3cn(C)c4ccccc34)n2)c(OC)cc1N(C)CCN(C)C` [Osimertinib, reference compound]: the “Degradation of substrate protein EGFR” value with EGFR is on record as “No degradation”.
Consider `C=CC(=O)N1CCC[C@@H](n2nc(-c3ccc(Oc4ccccc4)cc3)c3c(N)ncnc32)C1` [ibrutinib, Ibrutinib, reference compound], for which, in test [1], the inhibition at 0.5 µM is 0 to 10% and the inhibition at 2 µM lay within 10 to 20%. Moreover, in the test with TMD8 (Table I-4, BTK inhibitors), the inhibition at 0.01 µM was -5 to 0% and the inhibition at 0.5 µM lay within 30 to 40%. Also, in the test with SW620 (Table I-4, BTK inhibitors), the inhibition at 0.01 µM is -5 to 0% and the inhibition at 0.5 µM was in the range of 0 to 5%.
